Measured values reported in US20240208992A1, “MACROCYCLES AS CFTR MODULATORS” (Idorsia Pharmaceuticals Ltd, priority 2021, published 2024).

Molecular target: human F508del-CFTR (Homo sapiens, UniProt P13569, DEL508-508)
Test: F508del-CFTR cell surface expression (corrector activity), DiscoveRx ß-galactosidase complementation chemiluminescence assay in recombinant U2OS cell line;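 further: U2OS cells co-expressing ProLink-tagged F508del-CFTR and a membrane-anchored enzyme acceptor, where more surface CFTR restores β-galactosidase activity measured by chemiluminescence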
Settings: for EC50: EC50, F508del-CFTR cell surface expression; for Emax: U2OS
[1] = U2OS cells, 16h compound incubation, geomean of several measurements
[2] = in relation to the Emax of the corrector lumacaftor (=100%), U2OS cells, 16h compound incubation, arithmetic mean
[3] = U2OS cell line, 16h compound incubation, geomean values
[4] = in relation to the Emax of the corrector lumacaftor (=100%), U2OS cell line, 16h compound incubation, arithmetic mean values
[5] = U2OS cells, 16h compound incubation, geomean values
[6] = in relation to Emax of corrector lumacaftor (=100%), arithmetic mean values

Sequence of human F508del-CFTR (P13569 with tags, fused parts or gaps DEL508-508): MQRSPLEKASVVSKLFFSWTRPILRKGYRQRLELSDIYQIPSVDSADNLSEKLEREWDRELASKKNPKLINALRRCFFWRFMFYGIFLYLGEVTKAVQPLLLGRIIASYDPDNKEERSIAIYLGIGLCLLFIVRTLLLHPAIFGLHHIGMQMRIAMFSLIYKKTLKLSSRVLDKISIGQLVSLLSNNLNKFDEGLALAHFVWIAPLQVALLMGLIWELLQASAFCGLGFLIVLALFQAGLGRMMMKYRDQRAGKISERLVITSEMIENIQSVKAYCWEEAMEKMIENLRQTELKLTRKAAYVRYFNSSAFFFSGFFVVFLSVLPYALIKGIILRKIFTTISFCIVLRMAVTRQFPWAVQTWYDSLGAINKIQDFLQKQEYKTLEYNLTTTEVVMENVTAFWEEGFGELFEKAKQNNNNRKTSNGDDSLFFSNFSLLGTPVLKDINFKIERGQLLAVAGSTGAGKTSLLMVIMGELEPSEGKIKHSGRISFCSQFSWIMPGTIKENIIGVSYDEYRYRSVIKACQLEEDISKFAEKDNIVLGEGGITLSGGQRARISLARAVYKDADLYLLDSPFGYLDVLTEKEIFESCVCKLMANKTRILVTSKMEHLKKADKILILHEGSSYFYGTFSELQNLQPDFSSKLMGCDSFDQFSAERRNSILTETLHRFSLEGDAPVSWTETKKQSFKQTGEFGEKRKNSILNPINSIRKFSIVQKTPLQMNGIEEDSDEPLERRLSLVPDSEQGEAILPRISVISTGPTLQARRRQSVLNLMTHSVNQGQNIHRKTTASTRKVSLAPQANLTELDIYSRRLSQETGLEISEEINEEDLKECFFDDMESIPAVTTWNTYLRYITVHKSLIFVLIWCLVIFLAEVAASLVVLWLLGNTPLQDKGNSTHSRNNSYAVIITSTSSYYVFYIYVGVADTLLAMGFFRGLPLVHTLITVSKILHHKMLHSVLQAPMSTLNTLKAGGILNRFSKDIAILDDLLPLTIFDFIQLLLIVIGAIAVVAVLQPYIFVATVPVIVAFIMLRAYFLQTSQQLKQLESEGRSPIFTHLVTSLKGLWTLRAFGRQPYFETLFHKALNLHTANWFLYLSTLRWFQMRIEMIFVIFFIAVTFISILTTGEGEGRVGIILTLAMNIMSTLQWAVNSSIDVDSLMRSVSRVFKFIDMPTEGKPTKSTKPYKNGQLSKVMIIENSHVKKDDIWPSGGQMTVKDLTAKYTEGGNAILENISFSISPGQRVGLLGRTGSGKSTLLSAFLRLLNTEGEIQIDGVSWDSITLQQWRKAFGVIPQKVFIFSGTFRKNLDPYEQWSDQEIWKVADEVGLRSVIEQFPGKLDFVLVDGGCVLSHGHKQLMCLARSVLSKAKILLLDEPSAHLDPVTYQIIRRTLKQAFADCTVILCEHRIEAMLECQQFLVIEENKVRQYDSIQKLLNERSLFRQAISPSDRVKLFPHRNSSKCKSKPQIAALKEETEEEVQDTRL
Method: The method measures the effect of over-night compound incubation on F508del-CFTR cell surface expression in a recombinant U2OS cell line (DiscoveRx, #93-0987C3). This cell line is engineered to co-express (i) human F508del-CFTR tagged with a Prolink (PK=short ß-galactosidase fragment) and (ii) the remainder of the ß-galactosidase enzyme (Enzyme Acceptor; EA) localized to the plasma membrane. Incubation with compounds that increase PK-tagged F508del-CFTR at the plasma membrane will lead to complementation of the EA fragment to form a functional ß-galactosidase enzyme which is quantified by a chemiluminescence reaction.
The cells are incubated for 5h in the incubator before the addition of 5 μl/well of compound dilution series (5× working stocks in full medium). […] The cells are co-incubated with the compounds for 16h in the incubator at 37° C., 5% CO2. The next day, the cell plates are incubated for 2h at RT in the dark. […] Concentration-response curves are generated using compound-intrinsic maximal efficacy as upper plateau, and from these CRCs compound-intrinsic EC50 values are determined.
The calculated EC50 values may fluctuate depending on the daily assay performance. […] EC50 values from several measurements are given as geomean values. The calculated Emax values may fluctuate depending on the daily assay performance. […] Emax values from several measurements are given as arithmetic mean values.

Compound	EC50 [3] [nM]	Emax [4] [%]	also measured
CCOCC[C@@H]1C(=O)N[C@H](Cc2ccccc2)COc2ccc3ncc(F)cc3c2C(=O)N[C@H](C(=O)NCCn2nnc(C3CC3)n2)CC(=O)N(C)[C@@H](CC(C)C)C(=O)N1C [Example 896, (3S,7S,10R,13R)-13-benzyl-N-(2-(5-cyclopropyl-2H-tetrazol-2-yl)ethyl)-10-(2-ethoxyethyl)-20-fluoro-7-isobutyl-6,9-dimethyl-1,5,8,11-tetraoxo-1,2,3,4,5,6,7,8,9,10,11,12,13,14-tetradecahydro-[1]oxa[4,7,10,14]tetraazacycloheptadecino[16,17-f]quinoline-3-carboxamide]			EC50 [1]: 188 nM; Emax [2]: 427%
COc1cccc(CCNC(=O)[C@@H]2CC(=O)N(C)[C@@H](CC(C)C)C(=O)N(CCC3CCCCC3)CC(=O)N[C@H](Cc3ccccc3)COc3ccc4ccccc4c3C(=O)N2)c1 (racemic) [Example 303, (3RS,7S,13R)-13-benzyl-9-(2-cyclohexylethyl)-7-isobutyl-N-(3-methoxyphenethyl)-6-methyl-1,5,8,11-tetraoxo-1,2,3,4,5,6,7,8,9,10,11,12,13,14-tetradecahydronaphtho[1,2-p][1]oxa[4,7,10,14]tetraazacycloheptadecine-3-carboxamide]	180	275	
COc1nccc2c1C(=O)N[C@H](C(=O)NCCc1nc3c(s1)CCC3)CC(=O)N(C)[C@@H](CC(C)C)C(=O)N1CCCC[C@@H]1C(=O)N[C@H](Cc1ccccc1)CO2 [Example 190, (7S,11S,17aR,20R)-20-benzyl-N-(2-(5,6-dihydro-4H-cyclopenta[d]thiazol-2-yl)ethyl)-11-isobutyl-4-methoxy-10-methyl-5,9,12,18-tetraoxo-5,6,7,8,9,10,11,12,15,16,17,17a,18,19,20,21-hexadecahydro-14H-dipyrido[2,1-f:3′,4′-p][1]oxa[4,7,10,14]tetraazacycloheptadecine-7-carboxamide]	334	310	
COC1CC(CCN2CC(=O)N[C@H](Cc3ccccc3)COc3ccc4ccccc4c3C(=O)N[C@H](C(=O)NCCc3ccc4c(c3)OCO4)CC(=O)N(C)[C@@H](CC(C)C)C2=O)C1 (stereo partly drawn) [Example 336, (3S,7S,13R)-N-(2-(benzo[d][1,3]dioxol-5-yl)ethyl)-13-benzyl-7-isobutyl-9-(2-(3-methoxycyclobutyl)ethyl)-6-methyl-1,5,8,11-tetraoxo-1,2,3,4,5,6,7,8,9,10,11,12,13,14-tetradecahydronaphtho[1,2-p][1]oxa[4,7,10,14]tetraazacycloheptadecine-3-carboxamide]	207	212	
COc1cc(CCNC(=O)[C@@H]2CC(=O)N(C)[C@@H](CC(C)C)C(=O)N(C)[C@H](C)C(=O)N[C@H](Cc3ccccc3)COc3ccc4nccn4c3C(=O)N2)on1 [Example 789, (3S,7S,10R,13R)-13-benzyl-7-isobutyl-N-(2-(3-methoxyisoxazol-5-yl)ethyl)-6,9,10-trimethyl-1,5,8,11-tetraoxo-1,2,3,4,5,6,7,8,9,10,11,12,13,14-tetradecahydroimidazo[1′,2′:1,6]pyrido[2,3-p][1]oxa[4,7,10,14]tetraazacycloheptadecine-3-carboxamide]			EC50 [5]: 675 nM; Emax [6]: 358%
COCCN1CCN2C(=O)[C@H](CC(C)C)N(C)C(=O)C[C@@H](C(=O)NCCc3cccc(OC(F)F)c3)NC(=O)c3c(cnc4ccccc34)OC[C@@H](Cc3ccccc3)NC(=O)[C@H]2C1 [Example 414, (9S,13S,19aR,22R)-22-benzyl-N-(3-(difluoromethoxy)phenethyl)-13-isobutyl-18-(2-methoxyethyl)-12-methyl-7,11,14,20-tetraoxo-7,8,9,10,11,12,13,14,17,18,19,19a,20,21,22,23-hexadecahydro-16H-pyrazino[2′,1′:6,7][1]oxa[4,7,10,14]tetraazacycloheptadecino[17,16-c]quinoline-9-carboxamide]			EC50 [5]: 372 nM; Emax [6]: 251%
COc1cc(C[C@@H]2C(=O)N[C@H](Cc3ccccc3)COc3ccnc(OC)c3C(=O)N[C@H](C(=O)NCCc3noc(C4CC4)n3)CC(=O)N(C)[C@@H](CC(C)C)C(=O)N2C)on1 [Example 861, (3R,6R,9S,13S)-3-benzyl-N-(2-(5-cyclopropyl-1,2,4-oxadiazol-3-yl)ethyl)-9-isobutyl-16-methoxy-6-((3-methoxyisoxazol-5-yl)methyl)-7,10-dimethyl-5,8,11,15-tetraoxo-2,3,4,5,6,7,8,9,10,11,12,13,14,15-tetradecahydropyrido[3,4-p][1]oxa[4,7,10,14]tetraazacycloheptadecine-13-carboxamide]			EC50 [1]: 722 nM; Emax [2]: 384%
COc1cc(CCNC(=O)[C@@H]2CC(=O)N(C)[C@@H](CC(C)C)C(=O)N3CCOC[C@@H]3C(=O)N[C@H](Cc3ccccc3)COc3cnc4ccccc4c3C(=O)N2)cc(OC)c1 [Example 57, (9S,13S,19aR,22R)-22-benzyl-N-(3,5-dimethoxyphenethyl)-13-isobutyl-12-methyl-7,11,14,20-tetraoxo-7,8,9,10,11,12,13,14,16,17,19,19a,20,21,22,23-hexadecahydro-[1,4]oxazino[3′,4′:6,7][1]oxa[4,7,10,14]tetraazacycloheptadecino[17,16-c]quinoline-9-carboxamide]	414	315	
COc1nccc2c1C(=O)N[C@H](C(=O)NCCc1noc(C3CC3)n1)CC(=O)N(C)[C@@H](CC(C)C)C(=O)N(C)[C@H](CCc1nc(-c3ccccc3)no1)C(=O)N[C@H](Cc1ccccc1)CO2 [Example 571, (3R,6R,9S,13S)-3-benzyl-N-(2-(5-cyclopropyl-1,2,4-oxadiazol-3-yl)ethyl)-9-isobutyl-16-methoxy-7,10-dimethyl-5,8,11,15-tetraoxo-6-(2-(3-phenyl-1,2,4-oxadiazol-5-yl)ethyl)-2,3,4,5,6,7,8,9,10,11,12,13,14,15-tetradecahydropyrido[3,4-p][1]oxa[4,7,10,14]tetraazacycloheptadecine-13-carboxamide]			EC50 [5]: 47 nM; Emax [6]: 347%
COc1cc2c(cc1OC)C(=O)N[C@H](C(=O)NCCc1ccc3c(c1)CCO3)CC(=O)N(C)[C@@H](CC(C)C)C(=O)N(C)CC(=O)N[C@H](Cc1ccccc1)CO2 (racemic) [Example 152, (3R,9S,13RS)-3-benzyl-N-(2-(2,3-dihydrobenzofuran-5-yl)ethyl)-9-isobutyl-17,18-dimethoxy-7,10-dimethyl-5,8,11,15-tetraoxo-2,3,4,5,6,7,8,9,10,11,12,13,14,15-tetradecahydrobenzo[p][1]oxa[4,7,10,14]tetraazacycloheptadecine-13-carboxamide]		133	
COc1ccc(CCNC(=O)[C@@H]2CC(=O)N(C)[C@@H](CC(C)C)C(=O)N(C)[C@H](Cc3nc(-c4ccc(F)cn4)no3)C(=O)N[C@H](Cc3ccccc3)COc3cnc4ccc(F)cc4c3C(=O)N2)cn1 [Example 843, (3S,7S,10R,13R)-13-benzyl-20-fluoro-10-((3-(5-fluoropyridin-2-yl)-1,2,4-oxadiazol-5-yl)methyl)-7-isobutyl-N-(2-(6-methoxypyridin-3-yl)ethyl)-6,9-dimethyl-1,5,8,11-tetraoxo-1,2,3,4,5,6,7,8,9,10,11,12,13,14-tetradecahydro-[1]oxa[4,7,10,14]tetraazacycloheptadecino[17,16-c]quinoline-3-carboxamide]			EC50 [1]: 114 nM; Emax [2]: 368%
CC(C)C[C@H]1C(=O)N(C)C2(CC2)C(=O)N[C@H](Cc2ccccc2)COc2cnc3ccc(F)cc3c2C(=O)N[C@H](C(=O)NCCc2cccc(S(C)(=O)=O)c2)CC(=O)N1C [Example 167, (3′S,7′S,13′R)-13′-benzyl-20′-fluoro-7′-isobutyl-6′,9′-dimethyl-N-(3-(methylsulfonyl)phenethyl)-1′,5′,8′,11′-tetraoxo-2′,3′,4′,5′,6′,7′,8′,9′,11′,12′,13′,14′-dodecahydro-1′H-spiro[cyclopropane-1,10′-[1]oxa[4,7,10,14]tetraazacycloheptadecino[17,16-c]quinoline]-3′-carboxamide]	822	238	
COc1cccc(CCNC(=O)[C@@H]2CC(=O)N(C)[C@@H](CC(C)C)C(=O)N3CCCC[C@H]3C(=O)N[C@H](Cc3ccccc3)COc3cnc4ccccc4c3C(=O)N2)c1 [Example 366, (9S,13S,19aS,22R)-22-benzyl-13-isobutyl-N-(3-methoxyphenethyl)-12-methyl-7,11,14,20-tetraoxo-7,8,9,10,11,12,13,14,17,18,19,19a,20,21,22,23-hexadecahydro-16H-pyrido[2′,1′:6,7][1]oxa[4,7,10,14]tetraazacycloheptadecino[17,16-c]quinoline-9-carboxamide]	265	172	
COc1cccc(CCNC(=O)[C@@H]2CC(=O)N(C)[C@@H](CC(C)C)C(=O)N3CCCC[C@@H]3C(=O)N[C@H](Cc3ccccc3)COc3cc4oc(C)nc4cc3C(=O)N2)c1 [Example 406, (7S,11S,21R,23aR)-21-benzyl-7-isobutyl-N-(3-methoxyphenethyl)-8,16-dimethyl-6,9,13,23-tetraoxo-1,3,4,6,7,8,9,10,11,12,13,20,21,22,23,23a-hexadecahydro-2H-oxazolo[5′,4′:4,5]benzo[1,2-p]pyrido[2,1-f][1]oxa[4,7,10,14]tetraazacycloheptadecine-11-carboxamide]			EC50 [5]: 409 nM; Emax [6]: 173%
COc1nccc2c1C(=O)N[C@H](C(=O)NCCc1cc(C(F)(F)F)no1)CC(=O)N(C)[C@@H](CC(C)C)C(=O)N1CCCC[C@@H]1C(=O)N[C@H](Cc1ccccc1)CO2 [Example 177, (7S,11S,17aR,20R)-20-benzyl-11-isobutyl-4-methoxy-10-methyl-5,9,12,18-tetraoxo-N-(2-(3-(trifluoromethyl)isoxazol-5-yl)ethyl)-5,6,7,8,9,10,11,12,15,16,17,17a,18,19,20,21-hexadecahydro-14H-dipyrido[2,1-f:3′,4′-p][1]oxa[4,7,10,14]tetraazacycloheptadecine-7-carboxamide]	647	248	
